Data: the supplement of paper PMC10307832

Assays:
Experiment in all cases: relative viability (nuclei count vs DMSO), 5 days (fraction); higher = more cells survive
[1] = compound: CS(=O)(=O)N1CCN(Cc2cc3nc(-c4cccc5[nH]ncc45)nc(N4CCOCC4)c3s2)CC1 [Pictilisib] + C[C@@H](Oc1cc(-c2cnn(C3CCNCC3)c2)cnc1N)c1c(Cl)ccc(F)c1Cl [Crizotinib] (partner 1 µM)
Outline: (§1)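 Lung cancer cell lines in 1536-well plates were dosed by pin tool the day after seeding, either with one drug alone or with a fixed anchor-drug dose plus five library-drug doses (not always all listed) in √10 steps. After 5 days, cells were fixed and their nuclei stained in one step (final 0.05% Triton X-100, 1% formaldehyde, 1 ug/ml Hoechst), then counted on 4× images. Relative viability is the nuclei count in treated wells divided by that in vehicle wells. Values are medians of duplicate plates.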

[2] = compound: NC1(c2ccc(-c3nc4ccn5c(=O)[nH]nc5c4cc3-c3ccccc3)cc2)CCC1 [MK-2206] + COc1cc2c(Oc3ccc(NC(=O)C4(C(=O)Nc5ccc(F)cc5)CC4)cc3F)ccnc2cc1OCCCN1CCOCC1 [Foretinib] (partner 0.25 µM)
Outline: as §1

[3] = compound: NC1(c2ccc(-c3nc4ccn5c(=O)[nH]nc5c4cc3-c3ccccc3)cc2)CCC1 [MK-2206] + COc1cccc2cc(-c3nc([C@H]4CC[C@H](C(=O)O)CC4)n4ncnc(N)c34)[nH]c12 [OSI-027] (partner 0.5 µM)
Outline: as §1

[4] = compound: NC1(c2ccc(-c3nc4ccn5c(=O)[nH]nc5c4cc3-c3ccccc3)cc2)CCC1 [MK-2206] + NC(=O)Nc1cc(-c2cccc(F)c2)sc1C(=O)N[C@H]1CCCNC1 [AZD7762] (partner 0.2 µM)
Outline: as §1

[5] = compound: NC1(c2ccc(-c3nc4ccn5c(=O)[nH]nc5c4cc3-c3ccccc3)cc2)CCC1 [MK-2206] + Nc1ncn([C@H]2C[C@H](O)[C@@H](CO)O2)c(=O)n1 [Decitabine] (partner 2 µM)
Outline: as §1

Cell Line | relative viability ([1]; first compound 0.02 µM) | relative viability ([1]; first compound 0.06325 µM) | relative viability ([1]; first compound 0.6325 µM) | relative viability ([1]; first compound 2 µM) | relative viability ([2]; first compound 0.01 µM) | relative viability ([2]; first compound 0.03162 µM) | relative viability ([2]; first compound 0.3162 µM) | relative viability ([2]; first compound 1 µM) | relative viability ([3]; first compound 0.01 µM) | relative viability ([3]; first compound 0.03162 µM) | relative viability ([3]; first compound 0.3162 µM) | relative viability ([3]; first compound 1 µM) | relative viability ([4]; first compound 0.01 µM) | relative viability ([4]; first compound 0.03162 µM) | relative viability ([4]; first compound 0.3162 µM) | relative viability ([4]; first compound 1 µM) | relative viability ([5]; first compound 0.01 µM) | relative viability ([5]; first compound 0.03162 µM) | relative viability ([5]; first compound 0.3162 µM) | relative viability ([5]; first compound 1 µM)
NCI-H460 | 0.956 | 0.945 | 0.501 | 0.0993 | 0.984 | 1.06 | 1.1 | 1.04 | 0.642 | 0.521 | 0.321 | 0.455 | 0.692 | 0.366 | 0.612 | 0.644 | 0.491 | 0.506 | 0.513 | 0.419
NCI-H2085 | 0.887 | 0.994 | 0.747 | 0.394 | 0.921 | 1.07 | 1 | 0.735 | 0.676 | 0.819 | 0.474 | 0.365 | 0.85 | 0.954 | 0.918 | 0.769 | 0.511 | 0.584 | 0.513 | 0.514
HCC-366 | 0.493 | 0.697 | 0.251 | 0.0577 | 0.924 | 1.03 | 0.869 | 0.975 | 0.927 | 0.962 | 0.569 | 0.44 | 0.26 | 0.204 | 0.244 | 0.18 | 0.358 | 0.334 | 0.339 | 0.32
EPLC-272H | 0.995 | 0.993 | 0.702 | 0.72 | 0.811 | 0.686 | 0.649 | 0.633 | 0.31 | 0.259 | 0.26 | 0.266 | 0.23 | 0.185 | 0.202 | 0.175 | 0.392 | 0.345 | 0.364 | 0.392
201T | 1.04 | 1.04 | 1.03 | 0.788 | 1.1 | 1.2 | 1.13 | 1.1 | 0.772 | 0.766 |  | 0.494 | 0.663 | 0.431 | 0.649 | 0.599 | 0.817 | 0.892 | 0.882 | 0.842
NCI-H3122 | 0.258 | 0.253 | 0.194 | 0.186 | 0.998 | 0.896 | 1.05 | 0.944 | 0.875 | 0.963 | 0.424 | 0.163 | 0.936 | 1.04 | 0.979 | 0.91 | 0.38 | 0.416 | 0.396 | 0.426
NCI-H838 | 0.871 | 0.795 | 0.76 | 0.497 | 0.956 | 1.08 | 0.962 | 0.908 | 0.484 | 0.397 | 0.327 | 0.366 | 0.935 | 0.872 | 0.969 | 0.906 | 0.472 | 0.494 | 0.496 | 0.451
NCI-H1755 | 0.848 | 0.829 | 0.827 | 0.546 | 0.929 | 0.986 | 0.816 | 0.823 | 0.76 | 0.723 | 0.509 | 0.6 | 0.508 | 0.328 | 0.458 | 0.432 | 0.724 | 0.71 | 0.726 | 0.638
HCC-15 | 0.791 | 0.926 | 0.761 | 0.583 | 0.971 | 1.04 | 0.958 | 0.892 | 0.663 | 0.675 | 0.436 | 0.404 | 1.01 | 1.24 | 1.24 | 1.23 | 0.63 | 0.774 | 0.549 | 0.353
NCI-H2087 | 0.912 | 0.828 | 1.03 | 0.985 | 1.11 | 1.1 | 1.17 | 1.08 | 0.548 | 0.636 | 0.392 | 0.303 | 0.809 | 1.34 | 1.4 | 1.33 | 0.244 | 0.273 | 0.24 | 0.196
LCLC-103H | 1.05 | 1.04 | 0.882 | 0.71 | 0.867 | 0.792 | 0.669 | 0.698 | 0.476 | 0.459 | 0.445 | 0.408 | 0.751 | 0.818 | 0.765 | 0.712 | 0.721 | 0.755 | 0.735 | 0.691
LK-2 | 0.251 | 0.23 | 0.239 | 0.23 | 1.57 | 1.19 | 1.34 | 1.39 | 0.179 | 0.199 | 0.181 | 0.151 | 0.325 | 0.312 | 0.259 | 0.182 | 0.36 | 0.355 | 0.286 | 0.12
ChaGo-K-1 | 1.17 | 1.21 | 1.08 | 0.947 | 0.969 | 0.974 | 0.922 | 0.93 | 0.575 | 0.631 | 0.477 | 0.463 | 0.875 | 0.796 | 0.858 | 0.93 | 0.533 | 0.511 | 0.514 | 0.526
HCC-78 | 0.321 | 0.305 | 0.222 | 0.18 | 0.557 |  | 0.496 | 0.459 | 0.394 |  | 0.351 | 0.285 | 0.66 | 0.608 | 0.624 | 0.538 | 0.678 | 0.666 | 0.643 | 0.699
NCI-H1666 | 1.07 | 1.05 | 0.815 | 0.491 | 1 | 0.985 | 1.02 | 0.91 | 0.845 | 0.806 | 0.729 | 0.767 | 0.808 | 0.858 | 0.962 | 0.806 | 0.589 | 0.703 | 0.765 | 0.684
EKVX | 0.898 | 1.15 | 0.801 | 0.493 | 0.877 | 0.673 | 0.855 | 0.387 | 0.777 | 0.707 | 0.646 | 0.59 | 0.738 | 0.886 | 0.751 | 0.704 | 0.359 | 0.339 | 0.324 | 0.322
